Measured values published in patent US20240325370A1, “THERAPEUTIC REGIMENS OF A DEGRADER OF BRD9” (FOGHORN THERAPEUTICS INC., priority 2021, published 2024).
Like-named read-outs stand apart in the source and are kept apart here.

How the values were obtained:
BRD9 [1] = target: T1, BRD9 (Homo sapiens, UniProt Q9H8M2); test: BRD9 degradation by western blot in synovial sarcoma cells (SYO-1, ASKA); format: cell-based; details: for DC50: read-out: Fitted DC50
T1 sequence (Q9H8M2 1-597): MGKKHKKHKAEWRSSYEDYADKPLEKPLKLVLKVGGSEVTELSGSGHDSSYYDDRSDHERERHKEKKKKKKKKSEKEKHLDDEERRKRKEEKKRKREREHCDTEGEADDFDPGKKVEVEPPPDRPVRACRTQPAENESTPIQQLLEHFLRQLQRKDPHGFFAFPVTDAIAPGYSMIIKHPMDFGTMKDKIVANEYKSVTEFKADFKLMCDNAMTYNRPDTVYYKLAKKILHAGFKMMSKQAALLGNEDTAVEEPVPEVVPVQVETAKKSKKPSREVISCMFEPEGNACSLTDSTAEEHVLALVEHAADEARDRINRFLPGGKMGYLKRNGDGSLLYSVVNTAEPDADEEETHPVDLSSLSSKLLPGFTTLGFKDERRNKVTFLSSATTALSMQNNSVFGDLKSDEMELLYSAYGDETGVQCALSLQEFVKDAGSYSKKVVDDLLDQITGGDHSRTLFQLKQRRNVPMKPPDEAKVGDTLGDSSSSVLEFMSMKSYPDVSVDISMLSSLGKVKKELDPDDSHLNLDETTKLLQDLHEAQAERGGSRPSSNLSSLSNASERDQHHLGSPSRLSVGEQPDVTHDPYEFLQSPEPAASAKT
Experimental: Method. Synovial sarcoma cells were plated in 6-well plate at […] cells/well and treated with serial concentrations of BRD9 degrader (10 nM top concentration, diluted 1:3) the next day for two time points at 37° C. Cells were then harvested, washed with cold PBS, and frozen in cell pellets at −80° C. Lysates were prepared by resuspending thawed pellets in 1×RIPA Lysis and Extraction buffer (Thermo Fisher, Cat #89900) with 1× Halt™ Protease and Phosphatase Inhibitor Cocktail, EDTA-free (Thermo Fisher, Cat #78441) and 1:1000 dilution Pierce™ Universal Nuclease for Cell Lysis 25ku (Thermo Fisher, Cat #88700). Lysates were incubated on ice for 10 minutes and then centrifuged in 4° C. at maximum speed (15,000 rpm) for 10 minutes. Samples were then analyzed for total protein using BCA protein quantification assay and diluted to 1 ug/μL with lysis buffer and 1× NuPAGE™ LDS Sample Buffer (4×) (Thermo Fisher, Cat #NP0007) and 1×DTT from 30× stock (Cell Signaling Technologies, Cat #14265S). Samples with 20-25 ug of total protein were loaded into 4-12% Bis-Tris Mini-Gel with 1×MES Running buffer and run at 150V for 45 minutes. Gels were transferred using Trans-Blot® Turbo™ Transfer System (semi-dry) at 25V for 10 minutes (High MW setting) on nitrocellulose blots. Blots were blocked in 5% milk in TBST for 1 hour and probed with BRD9 antibody (Bethyl Labs, Cat #A303-781A, 1:750 for SYO1, and Cell Signaling Technologies, Cat #71232S for ASKA) and beta-Actin antibody (Cell Signaling Technologies, Cat #3700, 1:2000) overnight at 4° C. The next day, blots were washed in TBST 3× and probed with 1:5000 IRDye® 680LT Goat anti-Rabbit IgG Secondary Antibody (LICOR, Cat #926-68021) and 1:10000 IRDye® 800CW Goat anti-Mouse IgG Secondary Antibody (LiCOR, Cat #926-32210) in LiCOR Odyssey® Blocking Buffer (TBS) for 1 hour at room temperature. Blots were washed in TBST 3× and scanned at […] wavelength using LiCOR Odyssey® CLx Imaging System. Western blot signal was quantified using same analyses program included in the same machine. BRD9 signal was quantified by normalizing to beta-actin signal and all samples were normalized to DMSO, set as 100% signal.

[2] = Interconversion between Enantiomer 1 and Enantiomer 2 in cell medium; format: physicochemical; details: Enantiomer 1 dosing, cell medium 37° C.; for Mean peak area ratio of Enantiomer 2 over Enantiomer 1 peak area ratio: 0.2 µM
Experimental: For the assessment of interconversion between Enantiomer 1 and Enantiomer 2 in cell medium, the following test was performed. […] At designated time point, aliquot (50 μL) was taken and processed by the addition of 150 μL of acetonitrile containing 0.1% formic acid and internal standard for LC/MS-MS analysis. Peak areas of both Enantiomer 1 and Enantiomer 2 were determined for each sample using a chiral specific analytical method.

BRD9 [3] = target: T1, BRD9; test: BRD9 degradation by western blot in synovial sarcoma cells (SYO-1, ASKA); format: cell-based; details: 30 minutes, up to 10 µM
BRD9 [4] = target: T1, BRD9; test: Pharmacodynamic activity in SYO-1 xenograft model (tumor BRD9 western blot); format: in vivo, mice; parameters: from tissue; host or cells: SYO-1 xenograft tumours in BALB/c nude or NOD SCID mice; details: SYO-1 xenograft, BALB/c Nude mice; single dose i.v. (Table 6)
Experimental: Method. The SYO-1 tumor cells were maintained in vitro as adherent cells in Dulbecco's Modified Eagle Medium (DMEM) supplemented with 10% fetal bovine serum at 37° C. in an atmosphere of 5% CO2 in air. The cells growing in an exponential growth phase were harvested and counted for tumor inoculation. BALB/c Nude mice (Shanghai Lingchang biological science) were inoculated subcutaneously on the right flank with (5×10^6) in 0.1 mL of phosphate buffered saline (PBS). The treatment-(described in table 6)—was started on day 19 after tumor inoculation, when the average tumor size reached 499 mm^3.
Mice were treated with racemic D1, 1 mg/kg, i.p. for 4 weeks, mice were euthanized, and tumors collected 1, 4, 8, 24, 48 and 72-hour post last dose. Tumors were lysed with 1×RIPA lysis buffer (Boston BioProducts, BP-115D) with protease and phosphatase protein inhibitor (Roche Applied Science #04906837001 & 05892791001). Equal amount of lysate (30 ug) were loaded in 4-12% Bis-Tris Midi Protein Gels in 1×MOPS buffer; samples ran at 120 V for 120 min. Proteins was transferred to membrane (NC) with TransBlot at 250 mA for 150 minute, then membranes were blocked with Odyssey Blocking buffer for 1 hour at room temperature. Membranes were hybridized overnight in cold room with primary antibodies. Images acquired using Li-COR imaging system (Li-COR Biotechnology, Lincoln, Nebraska).
Further study. The other study examined a range of compound D1 dose levels (0.05, 0.25, 1 or 5 mg/kg) formulated in a vehicle of 20% SBECD for tumor BRD9 protein levels up to 144 hours post dose. […] BRD9 protein levels were still depleted by 83.4% and 73.2% at 120 hours (5 days) and 144 hours (6 days), respectively, after a single IV administration of 5 mg/kg of compound D1, which corresponds to ˜2.5 mg/kg of compound S-D1.

- DC50 (BRD9 [1]; ASKA, 0.5 h): > 10 nM
- DC50 (BRD9 [1]; ASKA, 2 h): 0.38 nM
- DC50 (BRD9 [1]; SYO-1, 1 h): 2.8 nM
- DC50 (BRD9 [1]; SYO-1, 6 h): 0.066 nM
- Mean peak area ratio of Enantiomer 2 over Enantiomer 1 peak area ratio ([2]; 0 h): 0.0
- Mean peak area ratio of Enantiomer 2 over Enantiomer 1 peak area ratio ([2]; 0.5 h): 0.0
- Mean peak area ratio of Enantiomer 2 over Enantiomer 1 peak area ratio ([2]; 2 h): 0.13
- Mean peak area ratio of Enantiomer 2 over Enantiomer 1 peak area ratio ([2]; 6 h): 0.43
- % Enantiomer 2 ([2]; 2 h): 12%
- % Enantiomer 2 ([2]; 6 h): 30%
- BRD9 degradation activity (BRD9 [3]): no discernable activity
Compound: COc1cc(-c2cn(C)c(=O)c3cnc(N4CCC4)cc23)cc(OC)c1CN1CCC(CN2CCC3(CC2)CN(c2ccc4c(c2)C(=O)N([C@@H]2CCC(=O)NC2=O)C4)C3)CC1 (single isomer, unassigned) [Enantiomer 1]
- potency in degradation of endogenous BRD9 protein (BRD9 [1]; two synovial sarcoma cell lines, early time point): largely inactive or with much reduced degradation potency
- Pharmacodynamic activity: tumor BRD9 protein level by western blot (BRD9 [4]): inactive and did not degrade BRD9 protein
